target: recombinant human PDE-10 enzyme (human PDE-10A) (Homo sapiens (Human), UniProt Q9Y233); experiment: human PDE-10 inhibition assay (Molecular Devices IMAP PDE Fluorescence Polarization, enzyme assay IC50); format: biochemical; settings: Fluorescein-labeled cAMP/cGMP substrate, 40-minute incubation at 37° C.
Experimental: In one embodiment, the compounds provided herein were assayed for their ability to inhibit human PDE-10A. In one embodiment, the activities of the compounds were determined using the Molecular Devices IMAP PDE Fluorescence Polarization assay using recombinant human PDE-10 enzyme expressed in a baculoviral system. Briefly, 10 μL of a compound (0.2 nM-20 μM) was added to either a 96-well half area black plate or a 384-well black plate along with 10 μL of Fluorescein-labeled cAMP/cGMP substrate as per manufacturer's instructions and 10 μL of PDE enzyme (activity 0.1 U). Following a 40-minute incubation at 37° C., 60 μL of IMAP binding reagent was added. The plate was then read on a Perkin Elmer Victor (480-535 nm). The data was analyzed using Prism Software (GraphPad Inc, San Diego, Calif.).

recombinant human PDE-10 enzyme (human PDE-10A), sequence (Q9Y233 whole entry): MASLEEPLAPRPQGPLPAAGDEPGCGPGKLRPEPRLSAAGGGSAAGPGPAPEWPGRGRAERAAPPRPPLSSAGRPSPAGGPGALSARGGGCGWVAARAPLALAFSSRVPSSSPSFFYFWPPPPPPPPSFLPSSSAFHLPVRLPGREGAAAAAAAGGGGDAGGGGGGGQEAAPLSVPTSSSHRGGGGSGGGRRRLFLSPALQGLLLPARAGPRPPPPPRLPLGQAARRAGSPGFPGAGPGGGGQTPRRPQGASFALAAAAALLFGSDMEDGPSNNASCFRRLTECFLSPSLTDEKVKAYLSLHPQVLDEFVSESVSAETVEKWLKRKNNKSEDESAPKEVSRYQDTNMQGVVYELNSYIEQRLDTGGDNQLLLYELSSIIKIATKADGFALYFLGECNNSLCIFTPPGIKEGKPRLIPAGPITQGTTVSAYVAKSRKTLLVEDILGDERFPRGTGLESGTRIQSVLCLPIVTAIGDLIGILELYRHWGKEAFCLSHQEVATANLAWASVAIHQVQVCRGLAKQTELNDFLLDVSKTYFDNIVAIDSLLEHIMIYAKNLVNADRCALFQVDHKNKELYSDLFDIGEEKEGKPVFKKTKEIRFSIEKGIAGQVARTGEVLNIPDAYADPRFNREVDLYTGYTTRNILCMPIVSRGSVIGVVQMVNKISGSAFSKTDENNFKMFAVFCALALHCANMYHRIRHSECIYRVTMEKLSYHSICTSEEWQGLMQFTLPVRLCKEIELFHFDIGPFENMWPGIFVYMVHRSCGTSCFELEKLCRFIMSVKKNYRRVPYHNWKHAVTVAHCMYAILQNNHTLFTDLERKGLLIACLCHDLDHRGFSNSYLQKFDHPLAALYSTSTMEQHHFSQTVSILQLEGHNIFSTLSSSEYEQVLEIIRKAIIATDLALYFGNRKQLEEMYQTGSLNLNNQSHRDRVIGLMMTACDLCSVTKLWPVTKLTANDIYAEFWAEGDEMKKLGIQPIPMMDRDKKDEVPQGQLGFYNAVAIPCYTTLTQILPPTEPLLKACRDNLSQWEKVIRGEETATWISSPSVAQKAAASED

IC50 [nM]	SMILES
> 500	Clc1cccn2cc(C3CC3c3cn4cccc(Cl)c4n3)nc12 (stereo not drawn) [Compound 11]
> 500	Cc1ccn2cc(C3CC3c3nc4c(C)ncc(C)n4n3)nc2c1 (stereo not drawn) [Compound 12, 5,8-Dimethyl-2-(2-(7-methylimidazo[1,2-a]pyridin-2-yl)cyclopropyl)-[1,2,4]triazolo[1,5-a]pyrazine]
100 to 500	COc1ccn2c(C)c(C3CC3c3nc4c(C)ncc(C)n4n3)nc2c1 (stereo not drawn) [Compound 13]
> 500	CCOc1ccn2c(C)c(C3CC3c3nc4c(C)ncc(C)n4n3)nc2c1 (stereo not drawn) [Compound 14]
10 to 100	COc1cccn2c(C)c(C3CC3c3nc4c(C)ncc(C)n4n3)nc12 (stereo not drawn) [Compound 15]
> 500	COc1ccn2cc(C3CC3c3nc4c(C)ncc(C)n4n3)nc2c1 (stereo not drawn) [Compound 16]
10 to 100	CCOc1cccn2cc(C3CC3c3nc4c(C)ncc(C)n4n3)nc12 (stereo not drawn) [Compound 17]
> 500	Cc1cc2nc(C3CC3c3nc4c(C)ncc(C)n4n3)cn2cc1F (stereo not drawn) [Compound 18]
10 to 100	Cc1ncc(C)n2nc(C3CC3c3nc(-c4ccccc4)cn3C)nc12 (stereo not drawn) [Compound 19, 5,8-Dimethyl-2-(2-(1-methyl-4-phenyl-1H-imidazol-2-yl)cyclopropyl)-[1,2,4]triazolo[1,5-a]pyrazine]
100 to 500	Cn1c(C2CC2c2ccc3ccccc3n2)nc2c3cccnc3ccc21 (stereo not drawn) [Compound 20, 3-Methyl-2-(2-(quinolin-2-yl)cyclopropyl)-3H-imidazo[4,5-f]quinoline]
100 to 500	Clc1cccn2cc(C3CCC3c3cn4cccc(Cl)c4n3)nc12 (stereo not drawn) [Compound 23, 1,2-Bis(8-chloroimidazo[1,2-a]pyridin-2-yl)cyclobutane]
> 500	Fc1ccn2cc(C3CCC3c3cn4cccc(Cl)c4n3)nc2c1 (stereo not drawn) [Compound 24, 8-Chloro-2-(2-(7-fluoroimidazo[1,2-a]pyridin-2-yl)cyclobutyl)imidazo[1,2-a]pyridine]
> 500	Cn1c(C2CCC2c2nc3c4cccnc4ccc3n2C)nc2c3cccnc3ccc21 (stereo not drawn) [Compound 25, 1,2-Bis(3-methyl-3H-imidazo[4,5-f]quinolin-2-yl)cyclobutane]
100 to 500	Cc1ncc(C)n2nc([C@H]3C[C@@H]3c3nc4c5cccnc5ccc4n3C)nc12 [Compound 28]
≤ 10	Cc1ncc(C)n2nc([C@@H]3C[C@H]3c3nc4c5cccnc5ccc4n3C)nc12 [Compound 29]

— US9994590B2, “Substituted [1,2,4]triazolo[1,5-a]pyrazines as phosphodiesterase inhibitors” (Sunovion Pharamaceuticals Inc., priority 2012, dated 2018)
